CCc1ccc(CCOc2ccc(CC3SC(=O)NC3=O)cc2)nc1.Cl (stereo not drawn)
solubility (mole fraction)
Settings | in DMF | in acetic acid | in ethanol | in methanol | in n-propanol
278.15 K | 0.0161 | – | 0.000535 | 0.004 | 0.000325
283.15 K | 0.017 | – | – | 0.00494 | 0.000395
284.15 K | – | – | 0.000626 | – | –
288.15 K | 0.0183 | 0.00108 | 0.000723 | 0.00615 | 0.000456
293.15 K | 0.0194 | 0.0015 | 0.000879 | 0.00738 | 0.000522
298.15 K | 0.021 | 0.00203 | 0.00103 | 0.0086 | 0.00063
303.15 K | 0.0227 | 0.00276 | 0.00121 | 0.0101 | 0.00075
308.15 K | 0.0247 | 0.0038 | 0.00147 | 0.0121 | 0.00088
313.15 K | 0.0269 | 0.00558 | 0.00178 | 0.0144 | 0.00104
318.15 K | 0.0292 | 0.00804 | 0.00222 | 0.0173 | 0.00127
323.15 K | 0.0323 | 0.0118 | 0.00266 | 0.0211 | 0.00149

Reference: BigSolDB 2.1
